# Laboratory results published in US10799496B2, “Naphthylenyl compounds for long-acting injectable compositions and related methods” (priority 2018, dated 2020).
# How the values were obtained:
# [1] = Whole blood stability assay; type: in vitro ADME; details: prodrug 50 nM, fresh pooled human whole blood, 37 degrees C.; read-out: t1/2 at 37 degrees C. in human whole blood
# Procedure: Naltrexone prodrug stability was assessed using freshly collected whole blood (within 24-hr collection) from pooled human (n=3) donors. The incubation mixtures were prepared by spiking the prodrugs into pre-warmed (37 degrees C.) fresh whole blood to a final concentration of 50 nM. After gentle mixing, aliquots of incubation mixtures were immediately transferred into four different 96-deep well plates. One plate was used for each time point. The plates were incubated at 37 degrees C. at a shaking speed of 100 rpm. At time points 15, 30, 60 and 120 minutes, the reaction was quenched by addition of a mixture of water and acetonitrile containing the internal standard (naltrexone-D3). Time point 0 minutes was prepared separately by spiking the prodrugs into a quenched whole blood to obtain a final concentration of 50 nM. All samples were vortexed at a low speed for 15 min and centrifuged at 3900 rpm for 15 min. Supernatants were transferred into 96-well plates for LC-MS/MS analysis to monitor the depletion of the prodrugs and the formation of naltrexone.
# The amount of remaining prodrug and released naltrexone for each sample was quantitated against the calibration curves prepared with the whole blood. The human whole blood was purchased from BioreclamationIVT (Westbury, N.Y., USA). Naltrexone-D3 was purchased from CERILLIANT® (Round Rock, Tex., USA). […] Where multiple runs have been completed, average values are reported.
# [2] = Pharmacokinetic evaluation of the release of naltrexone from Compound 2 in rats following a single intramuscular injection; type: in vivo, Sprague-Dawley rats; details: for Compound 2i conc.: rat plasma
# Procedure: Five male Sprague-Dawley rats were allowed to acclimate to the test facility for at least 2 days prior to study start. For dose administration of Compound 2, the rats were lightly anesthetized with isofluorane, the hind leg shaved and dosed intramuscularly with the formulation using a 21G needle. […] Serial whole blood samples were collected via sublingual route (˜150 μL) at 1, 8, and 24 hours post dose, and at 2, 4, 7, 10, 14, 17, 21, 24, 28, 35, 42, 49, 56, 63, 71, 78, 85, and 91 days post dose.
# Blood samples were placed into K2EDTA blood collection tubes. After collection, blood samples were maintained chilled (on wet ice) and centrifuged (11,500 rpm for 2 minutes at 5 degrees C.) within 30 minutes to obtain plasma. Plasma was transferred into a single vial, 1.5 mL screw cap micro-centrifuge tube with inserts and stored at −80 degrees C. until analysis.
# The formulation dosed was a crystalline suspension of Compound 2 (46 milligrams of Compound 2 dosed per animal), wherein the crystalline test article was characterized with a particle size distribution of Dv10=12.9 μm, Dv50=31.5 μm, and Dv90=63.1 μm (as measured via laser diffraction). The formulation was prepared the day before dosing. Details of the formulation dosed are described in Table D below.
# Results of the above intramuscular rat study of Compound 2 are shown in Tables E and F. In particular, Table E reports the average blood plasma levels of naltrexone in rat (n=5) over 91 days following intramuscular administration.
smiles,measurement,setting,value
"O=C(Cc1cccc2c(CC(=O)Oc3ccc4c5c3O[C@H]3C(=O)CC[C@@]6(O)[C@@H](C4)N(CC4CC4)CC[C@]536)cccc12)Oc1ccc2c3c1O[C@H]1C(=O)CC[C@@]4(O)[C@@H](C2)N(CC2CC2)CC[C@]314 [Compound 1, bis((4R,4aS,7aR,12bS)-3-(cyclopropylmethyl)-4a-hydroxy-7-oxo-2,3,4,4a,5,6,7,7a-octahydro-1H-4,12-methanobenzofuro[3,2-e]isoquinolin-9-yl) 2,2′-(naphthalene-1,5-diyl)diacetate]",half-life at 50 nM,[1],26.4 min
"O=C(O)Cc1ccc2cc(CC(=O)Oc3ccc4c5c3O[C@H]3C(=O)CC[C@@]6(O)[C@@H](C4)N(CC4CC4)CC[C@]536)ccc2c1 [Compound 2i, 2-(6-(2-(((4R,4aS,7aR,12bS)-3-(cyclopropylmethyl)-4a-hydroxy-7-oxo-2,3,4,4a,5,6,7,7a-octahydro-1H-4,12-methanobenzofuro[3,2-e]isoquinolin-9-yl)oxy)-2-oxoethyl)naphthalen-2-yl)acetic acid]",Compound 2i conc.,"[2]; single i.m. dose of Compound 2, day 0.042 (1 hr), Rat 1",<0.2 ng/mL
same,Compound 2i conc.,"[2]; single i.m. dose of Compound 2, day 0.042 (1 hr), Rat 2",<0.2 ng/mL
same,Compound 2i conc.,"[2]; single i.m. dose of Compound 2, day 0.042 (1 hr), Rat 3",<0.2 ng/mL
same,Compound 2i conc.,"[2]; single i.m. dose of Compound 2, day 0.042 (1 hr), Rat 4",<0.2 ng/mL
same,Compound 2i conc.,"[2]; single i.m. dose of Compound 2, day 0.042 (1 hr), Rat 5",<0.2 ng/mL
same,Compound 2i conc.,"[2]; single i.m. dose of Compound 2, day 0.33 (8 hr), Rat 1",<0.2 ng/mL
same,Compound 2i conc.,"[2]; single i.m. dose of Compound 2, day 0.33 (8 hr), Rat 2",<0.2 ng/mL
same,Compound 2i conc.,"[2]; single i.m. dose of Compound 2, day 0.33 (8 hr), Rat 3",<0.2 ng/mL
same,Compound 2i conc.,"[2]; single i.m. dose of Compound 2, day 0.33 (8 hr), Rat 4",<0.2 ng/mL
same,Compound 2i conc.,"[2]; single i.m. dose of Compound 2, day 0.33 (8 hr), Rat 5",<0.2 ng/mL
same,Compound 2i conc.,"[2]; single i.m. dose of Compound 2, day 1, Rat 1",<0.2 ng/mL
same,Compound 2i conc.,"[2]; single i.m. dose of Compound 2, day 1, Rat 2",<0.2 ng/mL
same,Compound 2i conc.,"[2]; single i.m. dose of Compound 2, day 1, Rat 3",<0.2 ng/mL
same,Compound 2i conc.,"[2]; single i.m. dose of Compound 2, day 1, Rat 4",<0.2 ng/mL
same,Compound 2i conc.,"[2]; single i.m. dose of Compound 2, day 1, Rat 5",<0.2 ng/mL
same,Compound 2i conc.,"[2]; single i.m. dose of Compound 2, day 2, Rat 1",<0.2 ng/mL
same,Compound 2i conc.,"[2]; single i.m. dose of Compound 2, day 2, Rat 2",<0.2 ng/mL
same,Compound 2i conc.,"[2]; single i.m. dose of Compound 2, day 2, Rat 3",<0.2 ng/mL
same,Compound 2i conc.,"[2]; single i.m. dose of Compound 2, day 2, Rat 4",<0.2 ng/mL
same,Compound 2i conc.,"[2]; single i.m. dose of Compound 2, day 2, Rat 5",<0.2 ng/mL
same,Compound 2i conc.,"[2]; single i.m. dose of Compound 2, day 4, Rat 1",<0.2 ng/mL
same,Compound 2i conc.,"[2]; single i.m. dose of Compound 2, day 4, Rat 2",<0.2 ng/mL
same,Compound 2i conc.,"[2]; single i.m. dose of Compound 2, day 4, Rat 3",<0.2 ng/mL
same,Compound 2i conc.,"[2]; single i.m. dose of Compound 2, day 4, Rat 4",<0.2 ng/mL
same,Compound 2i conc.,"[2]; single i.m. dose of Compound 2, day 4, Rat 5",<0.2 ng/mL
same,Compound 2i conc.,"[2]; single i.m. dose of Compound 2, day 7, Rat 1",<0.2 ng/mL
same,Compound 2i conc.,"[2]; single i.m. dose of Compound 2, day 7, Rat 2",<0.2 ng/mL
same,Compound 2i conc.,"[2]; single i.m. dose of Compound 2, day 7, Rat 3",<0.2 ng/mL
same,Compound 2i conc.,"[2]; single i.m. dose of Compound 2, day 7, Rat 4",<0.2 ng/mL
same,Compound 2i conc.,"[2]; single i.m. dose of Compound 2, day 7, Rat 5",<0.2 ng/mL
same,Compound 2i conc.,"[2]; single i.m. dose of Compound 2, day 10, Rat 5",<0.2 ng/mL
same,Compound 2i conc.,"[2]; single i.m. dose of Compound 2, day 49, Rat 1",<0.1 ng/mL
same,Compound 2i conc.,"[2]; single i.m. dose of Compound 2, day 49, Rat 2",<0.1 ng/mL
same,Compound 2i conc.,"[2]; single i.m. dose of Compound 2, day 49, Rat 3",<0.1 ng/mL
same,Compound 2i conc.,"[2]; single i.m. dose of Compound 2, day 49, Rat 4",<0.1 ng/mL
same,Compound 2i conc.,"[2]; single i.m. dose of Compound 2, day 56, Rat 1",<0.1 ng/mL
same,Compound 2i conc.,"[2]; single i.m. dose of Compound 2, day 56, Rat 2",<0.1 ng/mL
same,Compound 2i conc.,"[2]; single i.m. dose of Compound 2, day 56, Rat 3",<0.1 ng/mL
same,Compound 2i conc.,"[2]; single i.m. dose of Compound 2, day 56, Rat 4",<0.1 ng/mL
same,Compound 2i conc.,"[2]; single i.m. dose of Compound 2, day 56, Rat 5",<0.1 ng/mL
same,Compound 2i conc.,"[2]; single i.m. dose of Compound 2, day 63, Rat 1",<0.1 ng/mL
same,Compound 2i conc.,"[2]; single i.m. dose of Compound 2, day 63, Rat 2",<0.1 ng/mL
same,Compound 2i conc.,"[2]; single i.m. dose of Compound 2, day 63, Rat 3",<0.1 ng/mL
same,Compound 2i conc.,"[2]; single i.m. dose of Compound 2, day 63, Rat 4",<0.1 ng/mL
same,Compound 2i conc.,"[2]; single i.m. dose of Compound 2, day 63, Rat 5",<0.1 ng/mL
same,Compound 2i conc.,"[2]; single i.m. dose of Compound 2, day 71, Rat 1",<0.1 ng/mL
same,Compound 2i conc.,"[2]; single i.m. dose of Compound 2, day 71, Rat 2",<0.1 ng/mL
same,Compound 2i conc.,"[2]; single i.m. dose of Compound 2, day 71, Rat 3",<0.1 ng/mL
same,Compound 2i conc.,"[2]; single i.m. dose of Compound 2, day 71, Rat 4",<0.1 ng/mL
same,Compound 2i conc.,"[2]; single i.m. dose of Compound 2, day 71, Rat 5",<0.1 ng/mL
same,Compound 2i conc.,"[2]; single i.m. dose of Compound 2, day 78, Rat 1",<0.1 ng/mL
same,Compound 2i conc.,"[2]; single i.m. dose of Compound 2, day 78, Rat 2",<0.1 ng/mL
same,Compound 2i conc.,"[2]; single i.m. dose of Compound 2, day 78, Rat 3",<0.1 ng/mL
same,Compound 2i conc.,"[2]; single i.m. dose of Compound 2, day 78, Rat 4",<0.1 ng/mL
same,Compound 2i conc.,"[2]; single i.m. dose of Compound 2, day 78, Rat 5",<0.1 ng/mL
same,Compound 2i conc.,"[2]; single i.m. dose of Compound 2, day 85, Rat 1",<0.1 ng/mL
same,Compound 2i conc.,"[2]; single i.m. dose of Compound 2, day 85, Rat 2",<0.1 ng/mL
same,Compound 2i conc.,"[2]; single i.m. dose of Compound 2, day 85, Rat 3",<0.1 ng/mL
same,Compound 2i conc.,"[2]; single i.m. dose of Compound 2, day 85, Rat 4",<0.1 ng/mL
same,Compound 2i conc.,"[2]; single i.m. dose of Compound 2, day 85, Rat 5",<0.1 ng/mL
same,Compound 2i conc.,"[2]; single i.m. dose of Compound 2, day 91, Rat 1",<0.1 ng/mL
same,Compound 2i conc.,"[2]; single i.m. dose of Compound 2, day 91, Rat 2",<0.1 ng/mL
same,Compound 2i conc.,"[2]; single i.m. dose of Compound 2, day 91, Rat 3",<0.1 ng/mL
same,Compound 2i conc.,"[2]; single i.m. dose of Compound 2, day 91, Rat 4",<0.1 ng/mL
same,Compound 2i conc.,"[2]; single i.m. dose of Compound 2, day 91, Rat 5",<0.1 ng/mL
same,plasma concentrations of parent Compound 2 and the resultant intermediate,"[2]; rat, single i.m. dose of Compound 2, over 91 days",generally low to not measurable
"O=C(Cc1ccc2c(Cl)c(CC(=O)Oc3ccc4c5c3O[C@H]3C(=O)CC[C@@]6(O)[C@@H](C4)N(CC4CC4)CC[C@]536)ccc2c1Cl)Oc1ccc2c3c1O[C@H]1C(=O)CC[C@@]4(O)[C@@H](C2)N(CC2CC2)CC[C@]314 [Compound 6, bis((4R,4aS,7aR,12bS)-3-(cyclopropylmethyl)-4a-hydroxy-7-oxo-2,3,4,4a,5,6,7,7a-octahydro-1H-4,12-methanobenzofuro[3,2-e]isoquinolin-9-yl) 2,2′-(1,5-dichloronaphthalene-2,6-diyl)diacetate]",half-life at 50 nM,[1],25.7 min
"COc1c(CC(=O)Oc2ccc3c4c2O[C@H]2C(=O)CC[C@@]5(O)[C@@H](C3)N(CC3CC3)CC[C@]425)ccc2c(OC)c(CC(=O)Oc3ccc4c5c3O[C@H]3C(=O)CC[C@@]6(O)[C@@H](C4)N(CC4CC4)CC[C@]536)ccc12 [Compound 4, bis((4R,4aS,7aR,12bS)-3-(cyclopropylmethyl)-4a-hydroxy-7-oxo-2,3,4,4a,5,6,7,7a-octahydro-1H-4,12-methanobenzofuro[3,2-e]isoquinolin-9-yl) 2,2′-(1,5-dimethoxynaphthalene-2,6-diyl)diacetate]",half-life at 50 nM,[1],28.9 min
